Test [1] deals with A2780. Put plainly: Cytotoxicity against human A2780 cells by MTT assay. Format: functional, cell-based.
The next test deals with PANC-1. Kind of test: Cytotoxicity against human PANC-1 cells by MTT assay. Format: functional, cell-based. In general terms: Tetrazolium dyes change colour on reduction, which living cells bring about.
In test [2] the test system is A2780. Kind of test: Induction of cell cycle arrest in human A2780 cells assessed as accumulation at G2/M phase at IC50 incubated for 48 hrs by flow cytometry (reference value: 27.5 %). Format: functional.
The test system of the next test is WISH. Kind of test: Cytotoxicity against human WISH cells by MTT assay. Format: functional, cell-based.
Test [3] concerns A2780. Kind of test: Induction of apoptosis in human A2780 cells assessed as total apoptotic cell death at IC50 incubated for 48 hrs by Annexin V-FITC/PI staining based flow cytometry (reference value: 0.955 %). Format: functional. (In general: In flow cytometry, cells or beads pass a laser one at a time.)
For test [4], the system named is A2780. Put plainly: Induction of apoptosis in human A2780 cells assessed as fold increase in P53 mRNA level at IC50 incubated for 48 hrs by RT-PCR analysis relative to control. It counts as functional.
In test [5] the test system is A2780. Put plainly: Induction of apoptosis in human A2780 cells assessed as fold increase in caspase-3 mRNA level at IC50 incubated for 48 hrs by RT-PCR analysis relative to control. It counts as functional.
Test [6] concerns A2780. Kind of test: Induction of apoptosis in human A2780 cells assessed as fold decrease in Bcl-2 mRNA level at IC50 incubated for 48 hrs by RT-PCR analysis relative to control. It counts as functional.
Test [7] deals with A2780. Put plainly: Induction of apoptosis in human A2780 cells assessed as late apoptotic cells at IC50 incubated for 48 hrs by Annexin V-FITC/PI staining based flow cytometry (reference value: 0.23 %). Format: functional.
In test [8] the test system is A2780. Kind of test: Induction of apoptosis in human A2780 cells assessed as fold increase in Bax mRNA level at IC50 incubated for 48 hrs by RT-PCR analysis relative to control. It counts as functional.
For test [9], the system named is A2780. Put plainly: Induction of cell cycle arrest in human A2780 cells assessed as accumulation at G1 phase at IC50 incubated for 48 hrs by flow cytometry (reference value: 41.8 %). It counts as functional.
In test [10] the test system is A2780. Put plainly: Induction of apoptosis in human A2780 cells assessed as fold increase in caspase-9 mRNA level at IC50 incubated for 48 hrs by RT-PCR analysis relative to control. Format: functional.
Test [11] has as its system A2780. Kind of test: Induction of apoptosis in human A2780 cells assessed as early apoptotic cells at IC50 incubated for 48 hrs by Annexin V-FITC/PI staining based flow cytometry (reference value: 0.72 %). It counts as functional.
Test [12] concerns A2780. Kind of test: Induction of cell cycle arrest in human A2780 cells assessed as accumulation at S phase at IC50 incubated for 48 hrs by flow cytometry (reference value: 30.6 %). It counts as functional.
Test [13] relates to A2780. Put plainly: Induction of apoptosis in human A2780 cells assessed as fold increase in caspase-8 mRNA level at IC50 incubated for 48 hrs by RT-PCR analysis relative to control. It counts as functional.
The test system of test [14] is A2780. Kind of test: Induction of apoptosis in human A2780 cells assessed as necrotic cells at IC50 incubated for 48 hrs by Annexin V-FITC/PI staining based flow cytometry (reference value: 1.52 %). It counts as functional.
In the next test the test system is KB. Put plainly: Cytotoxicity against human KB cells. Format: functional, cell-based.

As a reminder, the IC50 is the concentration that gives 50% inhibition. High values mean lower potency, low ones higher potency.

Regarding `COc1cc([C@H]2c3cc(O)c(OC)cc3/C(=C\C(=O)NCCc3ccc(O)cc3)[C@H]2C(=O)NCCc2ccc(O)cc2)ccc1O`, the IC50 was determined as 31.2 µM in the test with A2780 [1] and 24.1 µM in the test with PANC-1.

With `COc1cc(/C=C/C(=O)NCCc2ccc(O)cc2)ccc1O` [N-TRANS-FERULOYL TYRAMINE], the IC50 came to 9.1 µM with A2780 [1] and 3.4 µM in the test on PANC-1.

As for `COc1cc(/C=C(\Oc2ccc(/C=C/C(=O)NCCc3ccc(O)cc3)cc2OC)C(=O)NCCc2ccc(O)cc2)ccc1O`, the concentration for half-maximal inhibition (IC50) was 25.1 µM with A2780 [1] and 19.3 µM in the test on PANC-1.

As for `COc1cc(/C=C/C(=O)NCCc2ccc(O)c(OC)c2)ccc1O`, the IC50 in the test with A2780 [1] amounted to 2.9 µM; in the test with PANC-1, 7 µM.

Turning to `COCc1c(O)cc2occ(-c3ccccc3O)c(=O)c2c1OC`, the Activity in the test with A2780 [2] was determined as 10.48%; in the test with A2780 [3], 43.65%; with A2780 [7], 14.48%; in the test with A2780 [9] it was 46.2%; in the test on A2780 [11], 29.17%; with A2780 [12], 43.3%. Moreover, the Activity in the test on A2780 [14] stood at 7.54%. For the same compound, the IC50 was ≥ 100 µM in the test on WISH, 2.1 µM with A2780 [1] and 6.4 µM in the test on PANC-1. Besides, the “fold change (FC)” value is on record as 6.7 in the test with A2780 [4]; 8.1 with A2780 [5]; 0.3 with A2780 [6]; 5.4 in the test on A2780 [8]; 8.08 with A2780 [10]; 6.09 in the test with A2780 [13].

For the compound `C#Cc1cccc(Nc2ncnc3cc(OCCOC)c(OCCOC)cc23)c1` [ERLOTINIB], the results for the IC50 in the test with A2780 [1] and with PANC-1 were 1.13 µM and 2.17 µM, respectively.

Compound `COc1cc(OC)c(-c2coc3c4c(c(OC)cc3c2=O)OC(C)(C)C=C4)cc1OC` returned an IC50 with KB of 2 µM. This lies in the single-digit micromolar range.

As for `O=C(/C=C/c1ccc(O)c(O)c1)NCCc1ccc(O)cc1`, the IC50 is 11.2 µM in the test on A2780 [1] and 7.2 µM in the test on PANC-1.

These data come from ChEMBL document CHEMBL6083195, “Cornulacin: a new isoflavone from Cornulaca monacantha and its isolation, structure elucidation and cytotoxicity through EGFR-mediated apoptosis” (RSC Med Chem, 2024).
